Results from US12616713B2, “Methods for enhancing vascular density” (priority 2016, dated 2026).

Legend:
HAECs = test: Spheroid sprouting assay, HAECs; type: cell-based, human; details: VEGF 50 ng/mL
Protocol: ECs spheroids were generated as described previously (Korff and Augustin, 1998, J Cell Biol 143, 1341-1352). ECs (1000 cells per spheroid) were suspended in EGM-2 medium containing 20% methocel (viscosity: 4000 cps, Sigma) and seeded in non-adherent round-bottom 96-well plates (Sigma). Under these conditions all suspended cells contributed to the formation of a single spheroid. The spheroids were harvested after 24 h embedded into collagen gels. Sprouting was initiated by adding C2C12 CM or EBM-2 medium containing VEGF (50 ng/mL). NMN (0.5 mM), NaHS (0.1 mM), DAPT (20 μM, Cayman Chemical) or SU5416 (10 μM, Sigma) were added to the media wherever mentioned. Angiogenic activity was quantified by measuring the sprout length that had grown out of each spheroid analyzing 8-10 spheroids per group.

SIRT1 = SIRT1 protein levels in HUVECs (Western blot); type: cell-based, human; details: NaHS 0.1 mM and/or NMN 0.5 mM
Protocol: SDS-PAGE and Western blot analysis were performed according to standard procedures and detected with the ECL detection kit (Bio-rad, Australia). For Western blot analysis antibodies directed against SIRT1 (Sigma), SIRT3 (CST), SIRT6 (SantaCruz), eNOS (Cell Signaling Technology or CST), cleaved Notch1 (CST), total OXPHOS cocktail (Abcam), PGC-1α (Millipore), VEGF (Abcam), VEGFR2 (Abcam), phospho-VEGFR2 (Millipore), Actin (Cell Signaling Technology), Tubulin (Sigma), 14-3-3 (Cell Signaling Technology), GAPDH (SantaCruz) were used. Quantification of band intensities by densitometry was carried out using ImageJ software.

NAD^+ = test: NAD+ levels in HUVECs; type: cell-based, human; details: increasing doses of NaHS, 24 hrs
Protocol: Levels of NAD^+ and NADH levels were measured in EC and muscle homogenates using commercially available kit (NAD-NADH Glo, Promega) according to manufacturer's instructions. Alternatively, NAD^+ levels in muscle and liver were measured by assay in-house developed method (Uddin et al., 2016, Front Pharmacol 7, 258). In brief, liver and gastrocnemius samples were homogenized in extraction buffer (10 mM Tris-HCl, 0.5% TritonX-100, 10 mM Nicotinamide, pH7.4) and then centrifuged (12,000×g for 5 min at 4° C.), after which an aliquot of supernatant was taken for protein quantification. After phenol:chloroform:isoamylalcohol (25:24:1) and chloroform extractions the supernatant was separated in two aliquots. One was used to measure total NAD. The other aliquot was acidified with HCl, and then neutralized with NaOH on ice to quantify NAD^+. Samples were mixed in a 96-well plate samples were mixed with alcohol dehydrogenase (ADH) at room temperature. Total NADH and NAD^+ were quantified using a Bio-Rad Imark microplate reader.

HUVECs [1] = test: Seahorse analysis of oxygen consumption rate; type: cell-based, human; details: NaHS 100 μM, NMN 500 μM
Protocol: Oxygen consumption rates were measured in accordance with manufacturer instructions using Seahorse XF96 analyzer (Seahorse Bioscience). Briefly, 40,000 HUVECs were plated onto XF96 plates and incubated overnight at 37° C./5% CO2. Next day, the media was replaced with XF assay media (DMEM), supplemented with glucose (1 g/L), glutamate (2 mM) and pyruvate (1 mM) and the pH was adjusted to 7.4. NaHS (100 μM) and/or NMN (500 μM) were added at the start of the experiment. Oxygen consumption measurements were made approximately every 8 minutes under basal conditions, and after the addition of oligomycin (1 μM). Experiments were replicated in six wells and averaged for each experimental condition.

HUVECs [2] = test: Wound scratch assay, HUVECs; type: cell-based, human; details: 6 h
Protocol: ECs were cultured until forming a confluent monolayer and a scratch was made using a 200 μL pipette tip. Then the cells were allowed to migrate+/−NaHS (0.1 mM) and +/−NMN (0.5 mM) in EGM-2 medium for 6 hrs. Images were taken at the same location using a brightfield inverted microscope (Olympus 2467) every 2 h. The area of gap closure was calculated using ImageJ software. In some experiments, HUVECs were transduced with Scr or SIRT1 siRNA and cultured until forming a confluent monolayer. The cells were exposed to H2O2 (150 μM) for 1 h and a scratch was made using a 200 μL pipette tip. Then the cells were allowed to migrate with PBS (vehicle), NaHS (100 μM) and/or NMN (500 μM) in EGM-2 medium for 6 h. Images were taken at the same location using a brightfield inverted microscope (Olympus 2467) every 2 h. The area of gap closure was calculated using ImageJ software.

NAMPT = NAMPT (Homo sapiens, UniProt P43490); details: in vitro (Wang et al. 2014); cited from earlier work
CD38 = molecular target: T1, CD38 (Homo sapiens, UniProt P28907); details: in vitro (Esande et al. 2013); cited from earlier work
T1 sequence (P28907 1-300): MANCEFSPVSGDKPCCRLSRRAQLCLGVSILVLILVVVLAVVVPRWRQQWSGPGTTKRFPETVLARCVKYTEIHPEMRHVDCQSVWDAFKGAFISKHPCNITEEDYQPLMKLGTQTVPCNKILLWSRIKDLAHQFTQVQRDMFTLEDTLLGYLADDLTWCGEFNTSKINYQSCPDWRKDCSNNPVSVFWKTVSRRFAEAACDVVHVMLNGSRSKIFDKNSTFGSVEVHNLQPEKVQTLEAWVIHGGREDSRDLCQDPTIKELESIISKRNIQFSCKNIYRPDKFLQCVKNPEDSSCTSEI

NAMPT, sequence (P43490 whole entry, species assumed): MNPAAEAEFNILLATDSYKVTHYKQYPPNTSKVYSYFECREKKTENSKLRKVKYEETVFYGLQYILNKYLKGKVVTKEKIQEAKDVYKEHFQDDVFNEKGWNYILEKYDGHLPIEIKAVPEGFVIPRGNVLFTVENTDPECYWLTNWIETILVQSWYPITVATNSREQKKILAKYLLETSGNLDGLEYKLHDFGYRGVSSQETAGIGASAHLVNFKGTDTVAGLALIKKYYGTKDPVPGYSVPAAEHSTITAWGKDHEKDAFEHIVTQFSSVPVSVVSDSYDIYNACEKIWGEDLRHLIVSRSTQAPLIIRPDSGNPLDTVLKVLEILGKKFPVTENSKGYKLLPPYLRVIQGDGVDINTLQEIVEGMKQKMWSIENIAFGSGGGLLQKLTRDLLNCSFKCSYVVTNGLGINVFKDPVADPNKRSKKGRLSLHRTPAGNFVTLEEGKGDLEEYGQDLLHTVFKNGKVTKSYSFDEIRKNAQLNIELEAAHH

C[C@H](NC(=O)Cc1cc(F)cc(F)c1)C(=O)N[C@H](C(=O)OC(C)(C)C)c1ccccc1 [DAPT, N—[N-(3,5-Difluorophenacetyl)-L-alanyl]-S-phenylglycine t-butyl ester, reference compound]
sprout length of spheroids (HAECs; DAPT 20 μM, NT or SIRT1 siRNA): increased sprout length irrespective of SIRT1 levels

[Na+].[SH-] [NaHS, sodium hydrosulfide]
SIRT1 protein levels (SIRT1): increased SIRT1 protein levels | intracellular NAD^+ levels in ECs (NAD^+): raised intracellular NAD^+ levels in ECs in a dose dependent manner | basal OCR (HUVECs [1]): lowered the basal OCR | cell migration in a scratch assay (HUVECs [2]; NT or SIRT1 siRNA HUVECs, NaHS 0.1 mM, independent of VEGF but dependent on SIRT1): increased cell migration | cell migration (percentage of closed gaps) (HUVECs [2]; Scr or SIRT1 siRNA HUVECs, H2O2 150 μM 1 h, NaHS 100 μM and/or NMN 500 μM): increased cell migration in a SIRT1-dependent manner

OC(CNc1ccccc1)Cn1c2ccc(Br)cc2c2cc(Br)ccc21 (stereo not shown) [P7C3]
activity of NAMPT (NAMPT): enhances activity of NAMPT in vitro

Cc1cc(C)c(/C=C2\C(=O)Nc3ccccc32)[nH]1 [SU5416, reference compound]
sprouting of spheroids (HAECs; SU5416 10 μM): completely blocked sprouting

O=c1cc(-c2ccc(O)cc2)oc2cc(O)cc(O)c12 [apigenin, 5,7-dihydroxy-2-(4-hydroxyphenyl)-4H-1-benzopyran-4-one]
CD38 activity (CD38): inhibitors of CD38 activity in vitro

O=c1c(O)c(-c2ccc(O)c(O)c2)oc2cc(O)cc(O)c12 [quercetin, 2-(3,4-dihydroxyphenyl)-3,5,7-trihydroxy-4H-chromen-4-one]
CD38 activity (CD38): inhibitors of CD38 activity in vitro
